Measurements: patent US20200339544A1 (JOINT STOCK COMPANY "BIOCAD", priority 2017, published 2020)
Read-outs that look alike come from different tables or passages of the source. Marks after values point to notes of the source that are not given here.

Assays:
[1] = Enzyme stability in human liver S9 fractions; format: in vitro ADME; conditions: 0.5 mg/mL pooled human liver S9 fractions; 10 μM compound; 37° C.; pH 7.4; read-out: Stability in liver S9 fractions, Clint
Experimental: Determination of enzyme stability.
Measuring of candidate enzyme stability enabled estimation of the stability of the compounds towards the action of liver enzymes.
Enzyme degradation rate was measured by incubating the reaction mixture in a dry block thermostat at 37° C., said reaction mixture comprising 0.5 mg/mL of pooled human liver S9 fractions (XenoTech, USA, cat # H0610), 10 μM compound, 2 mM β-nicotinamide adenine dinucleotide (Carbosynth, UK, cat # NN10871) and 4 mM magnesium chloride in 0.1 M sodium-phosphate buffer, pH=7.4. The reaction was quenched with acetonitrile (100 μL of acetonitrile/100 μL of the reaction mixture). After quenching, the samples were centrifuged at 10000 rpm for 10 minutes. Supernatant fluid was tested by chromatographic technique using Agilent1200 (Agilent, USA). We used gradient elution (1 mL/min flow rate). A graph of the logarithm of substance's peak area as a function of time was made. The dependent factor of the line corresponded to the elimination rate constant K based on which the drug's half-life T½ and intrinsic clearance CLint were calculated:
Based on the data obtained, candidate enzyme stability in human liver S9 fractions was determined (see Table 11).

[2] = test system: H1975 (lung adenocarcinoma, DM, L828R/T790M); assay: Antiproliferative activity on H1975 cells (Alamar Blue); format: cell-based; conditions: for IC50: Homo sapiens, NCI-H1975, H1975 cells; for SI IC50(A549)/IC50(DM): selectivity index, A549 vs H1975 cells
Experimental: (§1) Antiproliferative activity of EGFR inhibitors (Tables 15 and 16) was measured in cell-based bioassay on continuous epithelial cell cultures: A549 (lung adenocarcinoma, ATCC® CRM-CCL-185™—WT), HCC827 (lung adenocarcinoma, ATCC® CRL-2868™—SM (SingleMutantEGFR, exon19delE746-A750)) and H1975 (lung adenocarcinoma, ATCC® CRL-5908™—DM (DoubleMutantEGFR, L828R/T790M)) using cell viability reagent Alamar Blue (ThermoFisher, # DAL1100). Cells were cultured in 10% FBS-supplemented (Gibco, #16140071) RPMI-1640 (PanEco, S330p) for at least 1 passage after thawing, washed with PBS and passaged in 96-well culture plates (3599, Corning) with RPMI-1640 growth medium supplemented with 2% FBS in an amount of 5*10^3 cells/well for A549, 10*10^3 cells/well for HCC827 and 15*10^3 cells/well for H1975 in 100 μL, and incubated at 37° C. in an incubator (Thermo Forma, USA) under 5% of CO2 for 16-18 h for cell attachment.
(§2) The test compounds were dissolved in DMSO in the selected range of concentrations and transferred to RPMI-1640 medium (PanEco, S330p) supplemented with 2% FBS. After adding 50 μl of the prepared dilutions to the cells, the incubation mixture contained the final concentrations of the test substances and no more than 1% DMSO. The plates were Incubated at 37° C. for 72 h. After incubation, 15 μl of Alamar Blue vital dye (ThermoFisher, # DAL1100) was added to each well. The plates were shaken on an orbital shaker (Biosan, Latvia) and further incubated for 3-5 h in a CO2 incubator (Thermo Forma, USA). Number of living cells was estimated using a plate spectrophotometer Infinite M200Pro, (Tecan, Switzerland) measuring fluorescent signal at the excitation wavelength (λEx) of 540 nm and emission wavelength (λEm) of 590 nm.
IC50 was calculated using Magellan 7.2 software (Tecan, Switzerland) approximating experimental points by four-parameter logistic model with the optimization by Levenberg-Marquardt. […]
(§3) The ratio between IC50 for cell lines containing wild-type EGFR (A549) and IC50 for cell lines containing target mutation L828R/T790M (H1975) is the selectivity index (SI): […]

[3] = Chemical stability in human blood plasma; format: in vitro ADME; conditions: pooled human blood plasma; 10 μm; 4 hours at 37° C.; substance amount remaining
Experimental: 2) Determination of chemical stability in human blood plasma.
Determination of stability in human blood plasma was performed using pooled human blood plasma taken from ten healthy donors. The initial candidate solution (10 mM in DMSO) was diluted with pooled blood plasma to a concentration of 10 μm (test solution). The test solution was incubated in a dry block thermostat for 4 hours at 37° C. HPLC with Agilent 1200 liquid chromatography system (Agilent, USA) was employed to determine peak areas of the compounds in test samples, said peak areas corresponding to the initial test time (prior to incubation) and the final test time (after incubation in a dry block thermostat for 4 hours at 37° C.), proteins were preliminarily precipitated with acetonitrile. We used gradient elution (1 mL/min flow rate). Substance amount in % in a sample after thermostatting was determined.
The stability of the compounds was estimated.

[4] = General cytotoxicity on HepG2 cells; format: cell-based; conditions: human; general cytotoxicity, HepG2 cells, 72 hours, average of several tests
Experimental: (§4) The CC50 values were determined in the test for General cytotoxicity on HepG2 cells (rhepatocellular carcinoma, ATCC® HB-8065™) (Table 16). The cells were subcultured in DMEM medium (PanEco, S420p) supplemented with 10% FBS (Gibco, #16140071) for at least 1 passage after thawing, washed with PBS and passaged in 96-well culture plates (3599, Corning) at a concentration of 2*10^4 cells/100 μL per well, and incubated for 16-18 h. The test substances were titrated in DMSO and transferred to DMEM (PanEco, S420p) medium supplemented with 2% FBS, added to the cells and incubated at 37° C. for 72 hours; viability of the cells was then assessed using Alamar Blue dye (ThermoFisher, # DAL1100). CC50 was determined similarly to IC50.
(§5) The ratio between CC50 for HepG2 cell line and IC50 for H1975 cell line is the therapeutic index (TI): […]

HepG2 cells = assay: General cytotoxicity on HepG2 cells; format: cell-based; conditions: therapeutic index, CC50 HepG2 / IC50 H1975
Experimental: as §4, §5

WT EGFR (Wild-Type EGFR) = target: T1, WT EGFR (Wild-Type EGFR) (Homo sapiens, UniProt P00533); assay: Inhibition of WT EGFR kinase activity (ADP-Glo); format: biochemical
T1 construct: purchased SignalChem
Experimental: (§6) To assess IC50 values of the compounds disclosed herein, a biochemical assay of inhibition of kinase activity in a non-cellular system and a functional cellular anti-proliferation assay were used.
(§7) To assess inhibition of WT EGFR (Wild-Type EGFR), DM EGFR (DoubleMutantEGFR, L828R/T790M) kinase activity, SignalChem kinase system and ADP-Glo™ Kinase Assay (V9102, Promega) detection kit were used.
(§8) The measurements were carried out in a 25 μL reaction volume using a 96-well plate. […] The solution of 0.5 mg/mL peptide substrate and 50 μM ATP in the same buffer were added; the solution was incubated for 180 minutes at 37° C. To detect the amount of ATP taken up during the kinase reaction, the ADP Glo Detection Kit (V9102, Promega) was used. The luminescence was measured with the Infinite M200Pro plate spectrophotometer (Tecan, Switzerland). IC50 values were calculated using Magellan 7.2 software (Tecan, Switzerland) approximating experimental points by four-parameter logistic model with the optimization by Levenberg-Marquardt (Table 14).

[5] = test system: A549 (lung adenocarcinoma, WT); assay: Antiproliferative activity on A549 cells (Alamar Blue); format: cell-based; conditions: Homo sapiens, antiproliferative test
Experimental: as §1, §2
IC50 was calculated using Magellan 7.2 software (Tecan, Switzerland) approximating experimental points by four-parameter logistic model with the optimization by Levenberg-Marquardt.
as §3

[6] = target: T2, DM EGFR (DoubleMutantEGFR, L828R/T790M) (Homo sapiens, UniProt P00533, L858R/T790M); assay: Inhibition of DM EGFR kinase activity (ADP-Glo); format: biochemical; conditions: for IC50: inhibition of kinase activity, EGFR DM (L828R/T790M); for SI, IC50(WT)/IC50(DM): selectivity index, kinase EGFR WT vs EGFR DM
T2 construct: purchased SignalChem
Experimental: as §6, §7, §8

[7] = average values obtained in several tests, Table 16, read-out: H1975 (DM) IC50
[8] = antiproliferative test, Table 15, read-out: IC50 H1975 (DM)

Structure (SMILES)	Intrinsic clearance in human liver S9 fractions at 10 µM [1] [µL/min/mg]	IC50 [2, 7] [µM]	IC50 [2, 8] [µM]	SI IC50(A549)/IC50(DM) [2]	Stability in blood plasma, % [3] [%]	CC50 at 72 h [4] [µM]	TI, CC50/IC50 (HepG2 cells)	IC50 (WT EGFR (Wild-Type EGFR)) [µM]	IC50 [5] [µM]	IC50 [6] [µM]	SI, IC50(WT)/IC50(DM) [6]
C=CC(=O)Nc1cc(Nc2nccc(C(=O)c3ccc(OC)cc3OC(C)C)n2)c(OC)cc1N(C)CCN(C)C [EGFR_3365_104]	21.8	0.258	0.258	15	77.2	18.7	73	0.113	3.78	0.00642	17.61
C=CC(=O)Nc1cc(Nc2nccc(C(=O)c3ccc(NCCOC)cc3)n2)c(OC)cc1N(C)CCN(C)C [EGFR_3365_105, N-(2-((2-(dimethylamino)ethyl)(methyl)amino)-4-methoxy-5-((4-(4-((2-methoxyethyl)amino)benzoyl)pyrimidin-2-yl)amino)phenyl)acrylamide]	11.3	0.0216	0.0216	3898	89.4	45.6	2114	0.109	84.1	0.00293	37.17
C=CC(=O)Nc1cc(Nc2nccc(C(=O)c3ccc(NCCO)cc3)n2)c(OC)cc1N(C)CCN(C)C.O=CO [EGFR_3365_106, N-(2-((2-(dimethylamino)ethyl)(methyl)amino)-5-((4-(4-((2-hydroxyethyl)amino)benzoyl)pyrimidin-2-yl)amino)-4-methoxyphenyl)acrylamide formate]	6.7	0.0333	0.0333	>601	95.2	> 50	>1501**	0.108	> 20	0.0055	19.68
C=CC(=O)Nc1cc(Nc2nccc(C(=O)c3ccc(N4CCC[C@H](O)C4)cc3)n2)c(OC)cc1N(C)CCN(C)C [EGFR_3365_108, (S)-N-(2-((2-(dimethylamino)ethyl)(methyl)amino)-5-((4-(4-(3-hydroxypiperidin-1-yl)benzoyl)pyrimidin-2-yl)amino)-4-methoxyphenyl)acrylamide]	12.8	0.00435	0.00435	4925	100.0	47.9	11026	0.0254	21.4	0.00171	14.85
C=CC(=O)Nc1cc(Nc2nccc(C(=O)c3ccc(N4CCC[C@@H](O)C4)cc3)n2)c(OC)cc1N(C)CCN(C)C [EGFR_3365_109, (R)-N-(2-((2-(dimethylamino)ethyl)(methyl)amino)-5-((4-(4-(3-hydroxypiperidin-1-yl)benzoyl)pyrimidin-2-yl)amino)-4-methoxyphenyl)acrylamide]	14.8	0.00866	0.00866	2043	98.2	45.4	5245	0.0252	17.7	0.00314	8.03
C=CC(=O)Nc1cc(Nc2nccc(C(=O)c3ccc(N4CC[C@H](O)C4)cc3)n2)c(OC)cc1N(C)CCN(C)C.O=CO [EGFR_3365_112, (S)-N-(2-((2-(dimethylamino)ethyl)(methyl)amino)-5-((4-(4-(3-hydroxypyrrolidin-1-yl)benzoyl)pyrimidin-2-yl)amino)-4-methoxyphenyl)acrylamide formate]	6.8	0.0153	0.0153	2443	96.9	> 50	>3267	0.0235	37.3	0.00205	11.48
